How the values were obtained:
[1] = Liver injury after mirtazapine alone (serum ALT, histology); assay type: in vivo, mouse; settings: data not shown
Experimental: Male 8-10 week old C57BL/6 mice (Jackson Labs, Bar Harbor, Me.) were used. All procedures were approved by the University of Calgary Animal Care Committee (protocol numbers AC14-0129 and AC14-0128) and were performed in accordance with the guidelines of the Canadian Council on Animal Care. To delineate the impact of mirtazapine treatment upon liver immune cell numbers and phenotype, and upon cytokine/chemokine networks within the liver, mice were treated with mirtazapine 1-20 mg/kg intraperitoneally^13-15. Mirtazapine was suspended in 1% aqueous solution of Tween 80, whereas the control group received 1% aqueous solution of Tween 80. Blood and liver samples were collected 5 hours post-mirtazapine treatment (or 16 hours post-Con A treatment). The detailed experimental protocols, lists of antibodies and reagents used, flow cytometry gating, and immune cell phenotyping strategies, are described herein.
To assess liver injury, plasma alanine aminotransferase (ALT) activity was measured (Roche-Hitachi Modular-P800 apparatus; Roche, Mannheim, Germany). Additionally, formalin-fixed liver tissue slices were stained with Hematoxylin and Eosin (H&E) for microscopic examination. Extent of liver parenchymal necrosis was quantitated as previously described, using an Olympus XC10 camera (acquired using the Olympus VS-ASW software package; original magnification ×400). […]

[2] = system: patients registered in THIN database; test: THIN cohort study 1995-2017: incidence of IMIDs according to mirtazapine exposure (Example 9); assay type: in vivo, human; settings: THIN 1995-2017
From the text: Data source: THIN is a primary care patient oriented electronic medical record (EMR) database. It is one of the largest medical databases in the UK, consisting of prospectively gathered electronic medical records from over 11.1 million patients (˜3.7 million active patients), the equivalent to 75.6 million patient years, from more than 560 general practices in the UK, covering 6.2% of the UK population. All data elements are fully anonymised and validated by Cegedim Strategic Data (CSD)-Medical Research UK. […] Data from participant general practitioners across the UK are exported to THIN administrators and the database is updated every 3 months.
Study cohort: All adult patients (18 years) registered in THIN database starting from Jan. 1, 1995. Since mirtazapine was approved and available in the UK, Europe, and US markets by 1996, all patients who were prescribed mirtazapine with a prescription duration longer than 30 days, were defined as incident cases. We assessed the hazard of developing each studied IMID (CD, UC, psoriasis, MS or RA) separately. […] Similarly, in the same MS cohort, if a patient develops another IMID of interest prior to a diagnosis of MS, the index date of outcome will be the date of MS diagnosis. In all of our cohorts, we will follow patients from study start date until an incident diagnosis of IMID of interest, death, loss to follow-up or end of follow-up.
Inclusion and exclusion criteria: Patients should not have any interruption of registration or leave of practice. Cases with mirtazapine prescription duration of less than 30 days or unknown duration were excluded from the study.
Exposure variable of interest: Our primary exposure variable was mirtazapine. We used Read codes to identify mirtazapine usage, duration, dose, and start date. Our primary outcome was the incident diagnosis of one of the following conditions: Crohn's disease, multiple sclerosis, psoriasis, rheumatoid arthritis, and ulcerative colitis during study follow-up period (1995-2017).
a) Demographic covariates: Pre-specified covariates include age at diagnosis; sex; and cigarette smoking status is defined either (1) current smoker, coded for smoking within 12 months of the index date (condition diagnosis date); (2) ex-smoker, coded for smoking before but not within 12 months of the index date; or (3) never smoked, coded either as a lifetime non-smoker or not recorded as a smoker; alcohol consumption classified as current, former, never consumed alcohol, or unknown status at diagnosis; body mass index (weight in kg and height in m2); and socioeconomic status measured by the Mosaic scale which is a consumer classification scale that captures demographics, lifestyles, and behaviours (10 classes).
b) Depression: Read codes were used to identify patients with major depressive disorder (MDD). Read codes associated with only symptoms of depression, bipolar disorder, mania or hypomania were excluded. MDD was defined as (1) never diagnosed with MDD; (2) past MDD diagnosis prior to 90 days from index date; or (3) current MDD diagnosis if a diagnosis was made within 90 days before or after the index date.
c) Comorbidities: We used the Quality and Outcomes Framework (QOF) Read codes to assess for the following comorbidities: asthma, atrial fibrillation, cancer, chronic kidney disease (stages 3-5), chronic obstructive pulmonary disease, coronary heart disease, dementia, diabetes, epilepsy, heart failure, hypertension, and hypothyroid. […]

CN1CCN2c3ncccc3Cc3ccccc3C2C1 (stereo not drawn) [Mirtazapine]
Liver injury as reflected by serum ALT levels or histology [1]: did not induce liver injury | Adjusted incidence rate ratio, Multiple sclerosis ([2]; N = 371, P = 0.006): 0.80 (0.71-0.88) | Adjusted incidence rate ratio, Crohn's Disease ([2]; N = 490, P = 0.89): 1.00 (0.93-1.07) | Adjusted incidence rate ratio, Ulcerative Colitis ([2]; N = 1375, P = 0.002): 0.84 (0.81-0.88) | Adjusted incidence rate ratio, R. arthritis ([2]; N = 1792, P < 0.001): 0.55 (0.51-0.60) | Adjusted incidence rate ratio, Psoriasis ([2]; N = 5181, P = 0.002): 0.93 (0.88-0.98)
